From patent US20230104800A1, “COMBINATION THERAPIES AND BIOMARKERS FOR TREATING CANCER” (priority 2020, published 2023)

Tested on: SHEP-MYCN-ER cells
Assay: FUCCI high-content live-cell imaging of cell cycle-related cell-killing activity
Format: cell-based, Human
Conditions: neuroblastoma SHEP-MYCN-ER cells with 200 nM 4-OHT (high MYCN), PC-002: 10 nM YM155, CHOP: 2 μM cyclophosphamide, 0.2 μM Doxorubicin, 8 nM vincristine, imaged every 20 min for 72 h
Method: Cultures were incubated at 37° C. in 5% CO2.
Mix each FUCCI Premo™ reagent (Thermo fisher, P36237) by inversion to ensure a homogenous solution. Add the mixed reagent to the SHEP-MYCN-ER cells in complete cell medium and mix gently. Return the cells to the culture incubator for over 16 hour.
High-content live-cell imaging analysis. After transfection, SHEP-MYCN-ER cells were incubated in complete cell medium with concentration indicated of different drugs (PC-002: 10 nM YM155, CHOP: 2 μM cyclophosphamide; 0.2 μM Doxorubicin; 8 nM vincristine). Cells were grown in Array Scan™ Live Cell Module and imaged every 20 min for 72 h under controlled growth conditions (CellInsight™ CX5 High-Content Screening (HSC) Platform, Thermo Fisher; Array Scan™ Live Cell Module, Thermo Fisher).
In the G1 phase of the cell cycle, geminin is broken down and only Cdtl tagged with RFP may be visualized, thus identifying cells in the G1 phase with red fluorescent nuclei. In the S, G2, and M phases, however, Cdt1 is degraded and only geminin tagged with GFP remains, thus identifying cells in these phases with green fluorescent nuclei. During the G1/S transition, both proteins are present in the cells, allowing GFP and RFP fluorescence to be observed—when green and red images are overlaid, the cells appear with yellow (orange) fluorescent nuclei. The dynamic color change from red-to-yellow, yellow-to-green or green-to-red represents the progression through cell cycle (live). The cell dead without color change represents the sensitivity to the drug (death).

Q: With “1-(2-Methoxyethyl)-2-methyl-4,9-dioxo-3-(pyrazin-2-ylmethyl)-4,9-dihydro-1H-naphtho[2,3-d] imidazolium bromide [YM155]” as the substance, how does the “cancer cell-killing activity in the G1 phase of the cell cycle (dead vs live cells)” value (FIG. 6A) read?
A: not significantly

Q: And the “cancer cell-killing activity in the S/G2 phase of the cell cycle (dead vs live cells)” value (FIG. 6B)?
A: predominantly

Q: And the “cancer cell-killing activity in the M phase of the cell cycle (dead vs live cells)” value (FIG. 6C)?
A: not significantly
